# “And” between values parts separate entries of the source, which are not always exact repeats. Equal entries are not always repeated. Toxic doses and inconclusive results are not listed.
# Tested on: CD2F1 mice, L1210 leukemia ip, survival T/C
# Assay: NCI In Vivo Anticancer Drug Screen. Data for tumor model L1210 Leukemia (intraperitoneal) in CD2F1 (CDF1) mice
# Conditions: endpoint: mean survival time, higher = longer survival
# Procedure, shortened: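 Activity against a transplanted murine tumor was judged by comparing the compound group with a vehicle group. The outcome in the treated animals was divided by that in the controls.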
# [1] = dose: 100.0 mg/kg/injection, schedule: Q04DX002 (ip), vehicle: saline with Tween-80
# [2] = dose: 200.0 mg/kg/injection, schedule: Q04DX002 (ip), vehicle: saline with Tween-80
# [3] = dose: 400.0 mg/kg/injection, schedule: Q04DX002 (ip), vehicle: saline with Tween-80
# [4] = dose: 100.0 mg/kg/injection, schedule: Q01DX009 (ip), vehicle: saline with Tween-80
# [5] = dose: 100.0 mg/kg/injection, schedule: Q04DX003 (ip), vehicle: saline with Tween-80
# [6] = dose: 200.0 mg/kg/injection, schedule: Q01DX009 (ip), vehicle: saline with Tween-80
# [7] = dose: 200.0 mg/kg/injection, schedule: Q04DX003 (ip), vehicle: saline with Tween-80
# [8] = dose: 400.0 mg/kg/injection, schedule: Q01DX009 (ip), vehicle: saline with Tween-80
# [9] = dose: 400.0 mg/kg/injection, schedule: Q04DX003 (ip), vehicle: saline with Tween-80
compound,measurement,setting,value
CCOC12CC3C4=CCOC5CC(=O)N6c7ccccc7C1(CCN2C4)C6C53 (centres undefined),T/C,"dose: 5.0 mg/kg/injection, schedule: Q01DX001 (ip), vehicle: saline",98 % of control
same,T/C,"dose: 10.0 mg/kg/injection, schedule: Q01DX001 (ip), vehicle: saline",101 % of control
same,T/C,"dose: 20.0 mg/kg/injection, schedule: Q01DX001 (ip), vehicle: saline",95 % of control
same,T/C,"dose: 40.0 mg/kg/injection, schedule: Q01DX001 (ip), vehicle: saline",97 % of control
COC(=O)c1nc2ccccc2cc1C#N,T/C,"dose: 100.0 mg/kg/injection, schedule: Q01DX001 (ip), vehicle: saline",97 % of control
same,T/C,"dose: 200.0 mg/kg/injection, schedule: Q01DX001 (ip), vehicle: saline",96 % of control
CCCCOP(=O)(OCCCC)Oc1cccc2ccccc12,T/C,[1],91 % of control
same,T/C,[2],95 % of control
same,T/C,[3],106 % of control
CCC(=O)c1ccc2c(c1)N(CCCN1CCN(CCO)CC1)c1ccccc1S2,T/C,"dose: 25.0 mg/kg/injection, schedule: Q04DX003 (ip), vehicle: Klucel (hydroxypropylcellulose) (HPC)",97 % of control
same,T/C,"dose: 100.0 mg/kg/injection, schedule: Q04DX003 (ip), vehicle: Klucel (hydroxypropylcellulose) (HPC)",116 % of control
COc1cc(C=Nc2cccc3ccccc23)cc(OC)c1OC,T/C,"dose: 100.0 mg/kg/injection, schedule: Q01DX001 (ip), vehicle: saline with Tween-80",98 % of control
same,T/C,[4],88 % of control and 93 % of control
same,T/C,[1],89 % of control and 100 % of control
same,T/C,[5],103 % of control
same,T/C,"dose: 200.0 mg/kg/injection, schedule: Q01DX001 (ip), vehicle: saline with Tween-80",95 % of control
same,T/C,[6],91 % of control and 96 % of control
same,T/C,[2],89 % of control and 96 % of control
same,T/C,[7],96 % of control
same,T/C,"dose: 400.0 mg/kg/injection, schedule: Q01DX001 (ip), vehicle: saline with Tween-80",88 % of control
same,T/C,[8],92 % of control and 95 % of control
same,T/C,[3],96 % of control and 100 % of control
same,T/C,[9],92 % of control
CN(C)C(=O)OCC[N+](C)(C)CCCCCCCCCC[N+](C)(C)CCOC(=O)N(C)C,T/C,"dose: 1.25 mg/kg/injection, schedule: Q04DX003 (ip), vehicle: saline",103 % of control
same,T/C,"dose: 2.5 mg/kg/injection, schedule: Q04DX003 (ip), vehicle: saline",97 % of control
CC(C)(C)OC(=O)NC(CCCCNC(=O)C(F)(F)F)C(=O)ON1C(=O)CCC1=O (centres undefined),T/C,"dose: 25.0 mg/kg/injection, schedule: Q04DX003 (ip), vehicle: saline with Tween-80",102 % of control
same,T/C,"dose: 50.0 mg/kg/injection, schedule: Q04DX003 (ip), vehicle: saline with Tween-80",102 % of control
same,T/C,[5],89 % of control and 101 % of control
O/N=C(\c1ccccc1)C1C(/C(=N/O)c2ccccc2)C1c1ccccc1 (centres undefined) (tested in a mixture with another compound),T/C,[4],95 % of control
same,T/C,[6],95 % of control
same,T/C,[8],90 % of control
O=C1C(F)=C(F)C(=O)C(F)=C1F,T/C,"dose: 3.12 mg/kg/injection, schedule: Q01DX009 (ip), vehicle: Klucel (hydroxypropylcellulose) (HPC)",97 % of control
same,T/C,"dose: 6.25 mg/kg/injection, schedule: Q01DX009 (ip), vehicle: Klucel (hydroxypropylcellulose) (HPC)",98 % of control
O=c1[nH]c(=O)c2ccccc2o1,T/C,"dose: 12.5 mg/kg/injection, schedule: Q01DX009 (ip), vehicle: saline with Tween-80",101 % of control
same,T/C,"dose: 25.0 mg/kg/injection, schedule: Q01DX009 (ip), vehicle: saline with Tween-80",101 % of control
same,T/C,"dose: 50.0 mg/kg/injection, schedule: Q01DX009 (ip), vehicle: saline with Tween-80",98 % of control
C=C(c1ccccc1)C(C)C(=O)OCC (centres undefined),T/C,[5],103 % of control
same,T/C,[7],103 % of control
same,T/C,[9],100 % of control
O=C1OC(O)C(Cl)=C1Cl (centres undefined),T/C,"dose: 100.0 mg/kg/injection, schedule: Q04DX002 (ip), vehicle: Klucel (hydroxypropylcellulose) (HPC)",103 % of control
same,T/C,"dose: 200.0 mg/kg/injection, schedule: Q04DX002 (ip), vehicle: Klucel (hydroxypropylcellulose) (HPC)",91 % of control
same,T/C,"dose: 400.0 mg/kg/injection, schedule: Q04DX002 (ip), vehicle: Klucel (hydroxypropylcellulose) (HPC)",97 % of control
NCCSSCC(N)C(=O)O (centres undefined),T/C,[5],106 % of control
same,T/C,[7],103 % of control
same,T/C,[9],94 % of control
CC1(C)N=C(N)N=C(N)N1c1cccc(CCCCc2ccc(S(=O)(=O)F)cc2)c1,T/C,"dose: 25.0 mg/kg/injection, schedule: Q01DX009 (ip), vehicle: saline",105 % of control
COC1(OC)CCC(OC)(OC)C(OC)(OC)C1(OC)OC,T/C,[5],96 % of control
same,T/C,[7],94 % of control
same,T/C,[9],102 % of control
CNCCNc1ccc(NCCNC)c2c1C(=O)c1ccccc1C2=O,T/C,"dose: 4.0 mg/kg/injection, schedule: Q01DX009 (ip), vehicle: acid diluted with saline",150 % of control and 157 % of control
same,T/C,"dose: 8.0 mg/kg/injection, schedule: Q01DX009 (ip), vehicle: acid diluted with saline",187 % of control and 195 % of control
same,T/C,"dose: 16.0 mg/kg/injection, schedule: Q01DX009 (ip), vehicle: acid diluted with saline",177 % of control
NOCc1cc(Cl)sc1Cl,T/C,[5],112 % of control
same,T/C,[7],121 % of control

# Source: PubChem BioAssay AID256 (DTP/NCI, 2004)
